# PubChem BioAssay (NCI)
#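 Following 48 hours of exposure in 96-well plates, responses at five concentrations were used to interpolate endpoints linearly. GI50: concentration for 50% inhibition of growth. TGI denotes the concentration required for complete inhibition of growth.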
# Columns and labels:
# Experiment in all cases: NCI-60 cell line screen, 48 h
# HS 578T breast = test system: HS 578T breast
# ACHN renal = test system: ACHN renal
# HL-60(TB) leukemia = test system: HL-60(TB) leukemia
# SK-MEL-2 melanoma = test system: SK-MEL-2 melanoma
# UO-31 renal = test system: UO-31 renal
# PC-3 prostate = test system: PC-3 prostate
# A498 renal = test system: A498 renal
# HOP-62 NSCLC = test system: HOP-62 NSCLC
# OVCAR-5 ovarian = test system: OVCAR-5 ovarian
# EKVX NSCLC = test system: EKVX NSCLC
# OVCAR-8 ovarian = test system: OVCAR-8 ovarian
# SR leukemia = test system: SR leukemia
# SNB-19 CNS = test system: SNB-19 CNS
# TK-10 renal = test system: TK-10 renal
# OVCAR-3 ovarian = test system: OVCAR-3 ovarian
# HCT-15 colon = test system: HCT-15 colon
# RPMI-8226 leukemia = test system: RPMI-8226 leukemia
# BT-549 breast = test system: BT-549 breast
# SF-539 CNS = test system: SF-539 CNS
# IGROV1 ovarian = test system: IGROV1 ovarian
# UACC-257 melanoma = test system: UACC-257 melanoma
# NCI-H23 lung = test system: NCI-H23 lung
# K-562 leukemia = test system: K-562 leukemia
# SNB-75 CNS = test system: SNB-75 CNS
# NCI-H460 lung = test system: NCI-H460 lung
# RXF 393 renal = test system: RXF 393 renal
# LOX IMVI melanoma = test system: LOX IMVI melanoma
# 786-0 renal = test system: 786-0 renal
# A549 NSCLC = test system: A549 NSCLC
# NCI/ADR-RES ovarian = test system: NCI/ADR-RES ovarian
# COLO 205 colon = test system: COLO 205 colon
# SF-295 CNS = test system: SF-295 CNS
# SF-268 CNS = test system: SF-268 CNS
# SW-620 colon = test system: SW-620 colon
# OVCAR-4 ovarian = test system: OVCAR-4 ovarian
# CAKI-1 renal = test system: CAKI-1 renal
# MOLT-4 leukemia = test system: MOLT-4 leukemia
# UACC-62 melanoma = test system: UACC-62 melanoma
# U251 CNS = test system: U251 CNS
# SK-OV-3 ovarian = test system: SK-OV-3 ovarian
# HT29 colon = test system: HT29 colon
# NCI-H522 lung = test system: NCI-H522 lung
# MALME-3M melanoma = test system: MALME-3M melanoma
# SK-MEL-5 melanoma = test system: SK-MEL-5 melanoma
# MDA-MB-231 breast = test system: MDA-MB-231 breast
# KM12 colon = test system: KM12 colon
# T-47D breast = test system: T-47D breast
# HOP-92 NSCLC = test system: HOP-92 NSCLC
# CCRF-CEM leukemia = test system: CCRF-CEM leukemia
# HCC-2998 colon = test system: HCC-2998 colon
# NCI-H226 lung = test system: NCI-H226 lung
# SN12C renal = test system: SN12C renal
# MCF7 breast = test system: MCF7 breast
# HCT-116 colon = test system: HCT-116 colon
# SK-MEL-28 melanoma = test system: SK-MEL-28 melanoma
# M14 melanoma = test system: M14 melanoma
# DU-145 prostate = test system: DU-145 prostate
smiles,measurement,setting,value
COc1cc2ncn(-c3cc(O[C@H](C)c4ccccc4Cl)c(C(N)=O)s3)c2cc1OC,GI50,HS 578T breast,0.0652 µM
same,TGI,HS 578T breast,0.804 µM
same,GI50,ACHN renal,1.04 µM
same,TGI,ACHN renal,> 25 µM
same,GI50,HL-60(TB) leukemia,0.00681 µM
same,TGI,HL-60(TB) leukemia,3.89 µM
same,GI50,SK-MEL-2 melanoma,0.00679 µM
same,TGI,SK-MEL-2 melanoma,5.02 µM
same,GI50,UO-31 renal,0.482 µM
same,TGI,UO-31 renal,12.1 µM
same,GI50,PC-3 prostate,0.0141 µM
same,TGI,PC-3 prostate,> 25 µM
same,GI50,A498 renal,0.0121 µM
same,TGI,A498 renal,0.194 µM
same,GI50,HOP-62 NSCLC,0.0158 µM
same,TGI,HOP-62 NSCLC,> 25 µM
same,GI50,OVCAR-5 ovarian,0.0139 µM
same,TGI,OVCAR-5 ovarian,> 23.8 µM
same,GI50,EKVX NSCLC,0.0872 µM
same,TGI,EKVX NSCLC,> 25 µM
same,GI50,OVCAR-8 ovarian,0.0114 µM
same,TGI,OVCAR-8 ovarian,11.8 µM
same,GI50,SR leukemia,0.00792 µM
same,TGI,SR leukemia,> 6.4 µM
same,GI50,SNB-19 CNS,0.0225 µM
same,TGI,SNB-19 CNS,> 25 µM
same,GI50,TK-10 renal,0.414 µM
same,TGI,TK-10 renal,4.45 µM
same,GI50,OVCAR-3 ovarian,0.00664 µM
same,TGI,OVCAR-3 ovarian,2.15 µM
same,GI50,HCT-15 colon,0.0107 µM
same,TGI,HCT-15 colon,> 25 µM
same,GI50,RPMI-8226 leukemia,0.0102 µM
same,TGI,RPMI-8226 leukemia,3.99 µM
same,GI50,BT-549 breast,0.0888 µM
same,TGI,BT-549 breast,4.44 µM
same,GI50,SF-539 CNS,0.0109 µM
same,TGI,SF-539 CNS,2.74 µM
same,GI50,IGROV1 ovarian,0.0197 µM
same,TGI,IGROV1 ovarian,12.9 µM
same,GI50,UACC-257 melanoma,2.93 µM
same,TGI,UACC-257 melanoma,15.4 µM
same,GI50,NCI-H23 lung,0.01 µM
same,TGI,NCI-H23 lung,4.39 µM
same,GI50,K-562 leukemia,0.00874 µM
same,TGI,K-562 leukemia,> 25 µM
same,GI50,SNB-75 CNS,0.0238 µM
same,TGI,SNB-75 CNS,3.59 µM
same,GI50,NCI-H460 lung,0.00955 µM
same,TGI,NCI-H460 lung,1.24 µM
same,GI50,RXF 393 renal,0.00947 µM
same,TGI,RXF 393 renal,3.53 µM
same,GI50,LOX IMVI melanoma,0.0105 µM
same,TGI,LOX IMVI melanoma,4.37 µM
same,GI50,786-0 renal,0.0412 µM
same,TGI,786-0 renal,3.11 µM
same,GI50,A549 NSCLC,0.014 µM
same,TGI,A549 NSCLC,> 14.4 µM
same,GI50,NCI/ADR-RES ovarian,0.00812 µM
same,TGI,NCI/ADR-RES ovarian,8.72 µM
same,GI50,COLO 205 colon,0.00544 µM
same,TGI,COLO 205 colon,4.58 µM
same,GI50,SF-295 CNS,0.0127 µM
same,TGI,SF-295 CNS,> 25 µM
same,GI50,SF-268 CNS,0.016 µM
same,TGI,SF-268 CNS,20.1 µM
same,GI50,SW-620 colon,0.0055 µM
same,TGI,SW-620 colon,5.57 µM
same,GI50,OVCAR-4 ovarian,3.67 µM
same,TGI,OVCAR-4 ovarian,> 25 µM
same,GI50,CAKI-1 renal,0.0999 µM
same,TGI,CAKI-1 renal,20.8 µM
same,GI50,MOLT-4 leukemia,0.00979 µM
same,TGI,MOLT-4 leukemia,3.76 µM
same,GI50,UACC-62 melanoma,0.154 µM
same,TGI,UACC-62 melanoma,7.43 µM
same,GI50,U251 CNS,0.0161 µM
same,TGI,U251 CNS,> 25 µM
same,GI50,SK-OV-3 ovarian,0.0097 µM
same,TGI,SK-OV-3 ovarian,12.7 µM
same,GI50,HT29 colon,0.00432 µM
same,TGI,HT29 colon,4.26 µM
same,GI50,NCI-H522 lung,0.00656 µM
same,TGI,NCI-H522 lung,2.84 µM
same,GI50,MALME-3M melanoma,1.71 µM
same,TGI,MALME-3M melanoma,12.3 µM
same,GI50,SK-MEL-5 melanoma,0.00912 µM
same,TGI,SK-MEL-5 melanoma,1.08 µM
same,GI50,MDA-MB-231 breast,0.021 µM
same,TGI,MDA-MB-231 breast,> 25 µM
same,GI50,KM12 colon,0.00728 µM
same,TGI,KM12 colon,3.86 µM
same,GI50,T-47D breast,0.146 µM
same,TGI,T-47D breast,7.76 µM
same,GI50,HOP-92 NSCLC,0.489 µM
same,TGI,HOP-92 NSCLC,7.47 µM
same,GI50,CCRF-CEM leukemia,0.0025 µM
same,TGI,CCRF-CEM leukemia,13.1 µM
same,GI50,HCC-2998 colon,0.0148 µM
same,TGI,HCC-2998 colon,6.18 µM
same,GI50,NCI-H226 lung,0.228 µM
same,TGI,NCI-H226 lung,6.99 µM
same,GI50,SN12C renal,0.0692 µM
same,TGI,SN12C renal,> 21.5 µM
same,GI50,MCF7 breast,0.00431 µM
same,TGI,MCF7 breast,5.6 µM
same,GI50,HCT-116 colon,0.0102 µM
same,TGI,HCT-116 colon,6.44 µM
CCOC(=O)Nn1c(C)nnc1CC#N,TGI,HS 578T breast,> 100 µM
same,TGI,ACHN renal,> 100 µM
same,TGI,SK-MEL-28 melanoma,> 100 µM
same,TGI,HL-60(TB) leukemia,> 100 µM
same,TGI,SK-MEL-2 melanoma,> 100 µM
same,TGI,UO-31 renal,> 100 µM
same,TGI,M14 melanoma,> 100 µM
same,TGI,PC-3 prostate,> 100 µM
same,TGI,HOP-62 NSCLC,> 100 µM
same,TGI,OVCAR-5 ovarian,> 100 µM
same,TGI,OVCAR-8 ovarian,> 100 µM
same,TGI,SR leukemia,> 100 µM
same,TGI,SNB-19 CNS,> 100 µM
same,TGI,TK-10 renal,> 100 µM
same,TGI,OVCAR-3 ovarian,> 100 µM
same,TGI,HCT-15 colon,> 100 µM
same,TGI,RPMI-8226 leukemia,> 100 µM
same,TGI,BT-549 breast,> 100 µM
same,TGI,SF-539 CNS,> 100 µM
same,TGI,IGROV1 ovarian,> 100 µM
same,TGI,UACC-257 melanoma,> 100 µM
same,TGI,NCI-H23 lung,> 100 µM
same,TGI,K-562 leukemia,> 100 µM
same,TGI,SNB-75 CNS,> 100 µM
same,TGI,NCI-H460 lung,> 100 µM
same,TGI,RXF 393 renal,> 100 µM
same,TGI,LOX IMVI melanoma,> 100 µM
same,TGI,786-0 renal,> 100 µM
same,TGI,A549 NSCLC,> 100 µM
same,TGI,NCI/ADR-RES ovarian,> 100 µM
same,TGI,SF-295 CNS,> 100 µM
same,TGI,SF-268 CNS,> 100 µM
same,TGI,SW-620 colon,> 100 µM
same,TGI,CAKI-1 renal,> 100 µM
same,TGI,MOLT-4 leukemia,> 100 µM
same,TGI,UACC-62 melanoma,> 100 µM
same,TGI,U251 CNS,> 100 µM
same,TGI,HT29 colon,> 100 µM
same,TGI,NCI-H522 lung,> 100 µM
same,TGI,DU-145 prostate,> 100 µM
same,TGI,MALME-3M melanoma,> 100 µM
same,TGI,SK-MEL-5 melanoma,> 100 µM
same,TGI,MDA-MB-231 breast,> 100 µM
same,TGI,KM12 colon,> 100 µM
same,TGI,T-47D breast,> 100 µM
same,TGI,HOP-92 NSCLC,> 100 µM
same,TGI,HCC-2998 colon,> 100 µM
same,TGI,NCI-H226 lung,> 100 µM
same,TGI,SN12C renal,> 100 µM
same,TGI,MCF7 breast,> 100 µM
same,TGI,HCT-116 colon,> 100 µM
